Values of other authors as cited in patent US9023374B2, “Sanitizing compositions” (priority 2009, dated 2015).
Read-outs that look alike come from different tables or passages of the source.

How the values were obtained:
[1] = test system: feline calicivirus
[2] = test system: feline calicivirus; details: room temperature

Structure (SMILES)	inactivation of feline calicivirus [1]	log10 reduction of feline calicivirus ([2]; after 8 minutes) [log10]	log10 reduction of feline calicivirus ([2]; after 30 minutes) [log10]
CCO [ethanol]	failed to inactivate the virus	–	–
CCO [70% w/w ethanol, ethanol]	–	< 2	3
